One assay concerns PIV5-GFP. The experiment in a line: Western blotting for PIV5 NP and P proteins in infected Hs27 cells. The assay is classed as cell-based, parainfluenza virus 5. The settings on record: 10 µM before and after infection; high MOI; lysates at 24 hpi. The source says: Hs27 (human skin fibroblast) cells cultured in 6-well dishes were lysed using protein lysis buffer. Cell lysates were resolved on 12% sodium dodecyl sulfate-polyacrylamide gel electrophoresis (SDS-PAGE) gels and transferred to nitrocellulose membranes (Bio-Rad, Hercules, CA, USA). After normalizing samples via western blotting for β-actin (1:20,000 dilution, catalog number A5316, Sigma-Aldrich, St. Louis, MO, USA), samples were probed with rabbit polyclonal antibodies for the PIV5 NP (1:2000) and P proteins (1:2000). Blots were visualized using anti-mouse horseradish peroxidase (HRP)-conjugated antibodies (Sigma-Aldrich) and chemiluminescence (Thermo Fisher Scientific).
The above experiments utilized GFP expression and flow cytometry as an assay for observing the effects of chalcones on viral protein expression. To extend this analysis to bona fide viral proteins, cells were left untreated, DMSO-treated, or treated with the chalcone 8o at 10 μM for 24 h. Cells were then infected with PIV5-GFP at a high MOI and then cultured in control media or media supplemented with 8o.

The test system of assay [1] is human cytomegalovirus (HCMV). Set-up: method as in PMID 23768434. The note with it: cited from earlier work.
In assay [2] the test system is human immunodeficiency virus (HIV). Set-up: method as in PMID 27161874. The settings on record: cited from earlier work.

This is an account of results in article PMC12467382, “Synthesis and Bioevaluation of Chalcones as Broad-Spectrum Antiviral Compounds Against Single-Stranded RNA Viruses” (Biomolecules, 2025).

Each structure is given as a SMILES string.

For `CCOc1ccc(Br)cc1/C=C/C(=O)c1c(O)cccc1OCc1ccccc1` [Chalcone 8o], in the assay with PIV5-GFP, the “PIV5 NP and P viral protein levels” value is “very little viral protein”. Also, in assay [1], the “Antiviral activity against HCMV” value is given as “had efficacy as an antiviral agent”. Besides, the “Antiviral activity against HIV” value in assay [2] is reported as “had efficacy as an antiviral agent”.
